Measurements from PubChem BioAssay (NCI).
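48-hour exposure; five concentrations; linearly interpolated endpoints. TGI denotes the concentration required for complete inhibition of growth.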

Key:
Assay in all cases: NCI tumour cell line growth inhibition, 48 h
EKVX NSCLC = test system: EKVX NSCLC
KM12 colon = test system: KM12 colon
SW-620 colon = test system: SW-620 colon
NCI-H460 lung = test system: NCI-H460 lung
DMS 114 small cell lung = test system: DMS 114 small cell lung
NCI-H522 lung = test system: NCI-H522 lung
SR leukemia = test system: SR leukemia
ACHN renal = test system: ACHN renal
HCC-2998 colon = test system: HCC-2998 colon
SNB-19 CNS = test system: SNB-19 CNS
RXF 393 renal = test system: RXF 393 renal
HOP-18 NSCLC = test system: HOP-18 NSCLC
RPMI-8226 leukemia = test system: RPMI-8226 leukemia
NCI-H226 lung = test system: NCI-H226 lung
DLD-1 colon = test system: DLD-1 colon
SK-MEL-28 melanoma = test system: SK-MEL-28 melanoma
MALME-3M melanoma = test system: MALME-3M melanoma
M14 melanoma = test system: M14 melanoma
SNB-75 CNS = test system: SNB-75 CNS
M19-MEL melanoma = test system: M19-MEL melanoma
A549 NSCLC = test system: A549 NSCLC
SF-539 CNS = test system: SF-539 CNS
SF-268 CNS = test system: SF-268 CNS
XF 498 CNS = test system: XF 498 CNS
CAKI-1 renal = test system: CAKI-1 renal
HCT-116 colon = test system: HCT-116 colon
U251 CNS = test system: U251 CNS
786-0 renal = test system: 786-0 renal
OVCAR-3 ovarian = test system: OVCAR-3 ovarian
UACC-62 melanoma = test system: UACC-62 melanoma
COLO 205 colon = test system: COLO 205 colon
SK-MEL-5 melanoma = test system: SK-MEL-5 melanoma
KM20L2 colon = test system: KM20L2 colon
RXF-631 renal = test system: RXF-631 renal
SK-OV-3 ovarian = test system: SK-OV-3 ovarian
NCI-H23 lung = test system: NCI-H23 lung
IGROV1 ovarian = test system: IGROV1 ovarian
HOP-62 NSCLC = test system: HOP-62 NSCLC
LXFL 529 NSCLC = test system: LXFL 529 NSCLC
HT29 colon = test system: HT29 colon
DMS 273 small cell lung = test system: DMS 273 small cell lung
A498 renal = test system: A498 renal
MOLT-4 leukemia = test system: MOLT-4 leukemia
SK-MEL-2 melanoma = test system: SK-MEL-2 melanoma
CCRF-CEM leukemia = test system: CCRF-CEM leukemia
K-562 leukemia = test system: K-562 leukemia
UACC-257 melanoma = test system: UACC-257 melanoma
OVCAR-5 ovarian = test system: OVCAR-5 ovarian
SNB-78 CNS = test system: SNB-78 CNS
HCT-15 colon = test system: HCT-15 colon
SF-295 CNS = test system: SF-295 CNS
LOX IMVI melanoma = test system: LOX IMVI melanoma
HL-60(TB) leukemia = test system: HL-60(TB) leukemia
OVCAR-8 ovarian = test system: OVCAR-8 ovarian
TK-10 renal = test system: TK-10 renal
OVCAR-4 ovarian = test system: OVCAR-4 ovarian
SN12C renal = test system: SN12C renal
UO-31 renal = test system: UO-31 renal

`Cc1c(NC(=O)/C(=N/NC(=S)N=N)C2C(=O)CC(C)(C)CC2=O)c(O)c2ccccc2c1O` showed a TGI (EKVX NSCLC) of 32.2 µM, a TGI (KM12 colon) of 22.1 µM and a TGI (SW-620 colon) of 22.3 µM. For the same compound, the TGI (NCI-H460 lung) was 64.9 µM, the TGI (DMS 114 small cell lung) was 4.17 µM and the TGI (NCI-H522 lung) was 8.39 µM. For the same compound, the TGI (SR leukemia) was 14.9 µM, the TGI (ACHN renal) was 26.8 µM and the TGI (HCC-2998 colon) was 23.3 µM. It also gave a TGI (SNB-19 CNS) of 26.5 µM, a TGI (RXF 393 renal) of 33.2 µM and a TGI (HOP-18 NSCLC) of 30.4 µM. The TGI (RPMI-8226 leukemia) was 56.7 µM, the TGI (NCI-H226 lung) was 27.7 µM and the TGI (DLD-1 colon) was 20.7 µM. The TGI (SK-MEL-28 melanoma) was 26.4 µM, the TGI (MALME-3M melanoma) was 29.6 µM and the TGI (M14 melanoma) was 18.5 µM. For the same compound, the TGI (SNB-75 CNS) was 45.6 µM, the TGI (M19-MEL melanoma) was 2950 nM and the TGI (A549 NSCLC) was 21.7 µM. It also gave a TGI (SF-539 CNS) of 12.4 µM, a TGI (SF-268 CNS) of 21.7 µM and a TGI (XF 498 CNS) of 28.9 µM. For the same compound, the TGI (CAKI-1 renal) was 37.6 µM, the TGI (HCT-116 colon) was 13.7 µM and the TGI (U251 CNS) was 14 µM. For the same compound, the TGI (786-0 renal) was 27.2 µM, the TGI (OVCAR-3 ovarian) was 6.5 µM and the TGI (UACC-62 melanoma) was 6 µM. The TGI (COLO 205 colon) was 25.5 µM, the TGI (SK-MEL-5 melanoma) was 11.3 µM and the TGI (KM20L2 colon) was 40.4 µM. For the same compound, the TGI (RXF-631 renal) was 31.7 µM, the TGI (SK-OV-3 ovarian) was 36.9 µM and the TGI (NCI-H23 lung) was 11.9 µM. It also gave a TGI (IGROV1 ovarian) of 19.8 µM, a TGI (HOP-62 NSCLC) of 36 µM and a TGI (LXFL 529 NSCLC) of 23.7 µM. It also gave a TGI (HT29 colon) of 33.6 µM, a TGI (DMS 273 small cell lung) of 22.4 µM and a TGI (A498 renal) of 35.7 µM. For the same compound, the TGI (MOLT-4 leukemia) was 15.7 µM, the TGI (SK-MEL-2 melanoma) was 26.1 µM and the TGI (CCRF-CEM leukemia) was 21.1 µM. The TGI (K-562 leukemia) was 62.8 µM, the TGI (UACC-257 melanoma) was 14 µM and the TGI (OVCAR-5 ovarian) was 36.9 µM. The TGI (SNB-78 CNS) was 58.8 µM, the TGI (HCT-15 colon) was 18.8 µM and the TGI (SF-295 CNS) was 27.6 µM. For the same compound, the TGI (LOX IMVI melanoma) was 12 µM, the TGI (HL-60(TB) leukemia) was 22.7 µM and the TGI (OVCAR-8 ovarian) was 17.6 µM. The TGI (TK-10 renal) was 35.6 µM, the TGI (OVCAR-4 ovarian) was 27 µM and the TGI (SN12C renal) was 20.1 µM. For the same compound, the TGI (UO-31 renal) was 25.4 µM.
